From patent US20110251191A1, “USE OF SUBSTITUTED 2, 3-DIHYDROIMIDAZO[1,2-C]QUINAZOLINES FOR THE TREATMENT OF MYELOMA” (BAYER SCHERING PHARMA AKTIENGESELLSCHAFT, priority 2008, published 2011)

Tests used:
Assay type in all cases: cell-based
Molm13 = experiment: proliferation assay (CellTiter-Glo), Molm13; conditions: Homo sapiens, MOLM-13; Molm13 cells, 72-hour drug exposure
Description: (§1) In accordance with the invention, the compounds were assessed in a cell-based assay that measures the capacity of the compounds to inhibit tumor cell proliferation following a 72-hour drug exposure. Cell viability is determined using CellTiter-Glo® Luminescent Cell Viability Assay (Promega). Cells were plated at 2000-5000 cells/well (depending on the cell lines) in 100 μL growth medium on 96-well microtiterplate. For each cell line assayed, cells were plated onto a separate plate for determination of Luminescence at t=0 hour and t=72 hour time points. Following overnight incubation at 37° C., Luminescence values for the t=0 samples were determined. Dose plates for the t=72 hour time points were treated with compounds diluted into growth medium. Cells were then incubated for 72 hours at 37° C. Luminescence values for the t=72 hour samples were determined. For data analysis, briefly, t=0 values were subtracted from those determined for the t=72 hour time points, for both the treated and untreated samples. Percent differences in […] between drug-treated and control values were used to determine the percent inhibition of growth.

Molp2 = experiment: proliferation assay (CellTiter-Glo), Molp2; conditions: MOLP-2; Molp2 cells, 72-hour drug exposure
Description: as §1

RPMI 8226 = experiment: proliferation assay (CellTiter-Glo), RPMI 8226; conditions: Homo sapiens; RPMI 8226 cells, 72-hour drug exposure
Description: as §1

KMS-12-PE = experiment: proliferation assay (CellTiter-Glo), KMS-12-PE; conditions: Homo sapiens; KMS-12-PE cells, 72-hour drug exposure
Description: as §1

KMS-12-BM = experiment: proliferation assay (CellTiter-Glo), KMS-12-BM; conditions: KMS-12-BM cells, 72-hour drug exposure
Description: as §1

Molp8 = experiment: proliferation assay (CellTiter-Glo), Molp8; conditions: Homo sapiens, MOLP-8; Molp8 cells, 72-hour drug exposure
Description: as §1

OPM2 = experiment: proliferation assay (CellTiter-Glo), OPM2; conditions: Homo sapiens, OPM-2; OPM2 cells, 72-hour drug exposure
Description: as §1

L363 = experiment: proliferation assay (CellTiter-Glo), L363; conditions: Homo sapiens, L-363; L363 cells, 72-hour drug exposure
Description: as §1

LP-1 = experiment: proliferation assay (CellTiter-Glo), LP-1; conditions: LP-1 cells, 72-hour drug exposure
Description: as §1

[1] = system: multiple myeloma cell lines; experiment: proliferation assays with multiple myeloma cell lines (summary); conditions: range over 9 multiple myeloma cell lines, 72-hour drug exposure; read-out: IC50s, proliferation of 9 multiple myeloma tested
Description: as §1

Compound `COc1c(OCCCN2CCOCC2)ccc2c1N=C(NC(=O)c1cnc(N)nc1)N1CCN=C21` [Compound A, 2-amino-N-[7-methoxy-8-(3-morpholin-4-ylpropoxy)-2,3-dihydroimidazo[1,2-c]quinazolin-5-yl]pyrimidine-5-carboxamide] has an IC50 (Molm13) of 69 nM, an IC50 (Molp2) of 12 nM and an IC50 (RPMI 8226) of 48 nM. The IC50 (KMS-12-PE) was 67 nM, the IC50 (KMS-12-BM) was 3.7 nM and the IC50 (Molp8) was 23 nM. For the same compound, the IC50 (OPM2) was 92 nM, the IC50 (L363) was 8.1 nM and the IC50 (LP-1) was 3.7 nM. The IC50 [1] was 3 to 100 nM.
